Data as given in paper PMC11088877, “AMP-activated protein kinase can be allosterically activated by ADP but AMP remains the key activating ligand” (Biochemical Journal, 2024).
Several values for one entry are separate records, joined by “and”; a condition that tells them apart may be missing. Equal entries are not always repeated.

Tests used:
[1] = system: FLAG-γ1-containing AMPK complexes; parameters: method as in PMID 26542978; details: ADP 300 µM to 3 mM; cited from earlier work
[2] = biological target: T1, human α2β2γ1 complex, CBS1 mutant (L129D/V130D) (Homo sapiens, UniProt P54619+P54646, L129D/V130D); assay: AMPK activation and Thr172 phosphorylation by the LKB1 complex, CBS1 mutant; type: biochemical; details: 300 µM nucleotide, 200 µM ATP
T1 construct: made in house; host or cells: Escherichia coli
T1 sequence (P54619 whole entry L129D/V130D): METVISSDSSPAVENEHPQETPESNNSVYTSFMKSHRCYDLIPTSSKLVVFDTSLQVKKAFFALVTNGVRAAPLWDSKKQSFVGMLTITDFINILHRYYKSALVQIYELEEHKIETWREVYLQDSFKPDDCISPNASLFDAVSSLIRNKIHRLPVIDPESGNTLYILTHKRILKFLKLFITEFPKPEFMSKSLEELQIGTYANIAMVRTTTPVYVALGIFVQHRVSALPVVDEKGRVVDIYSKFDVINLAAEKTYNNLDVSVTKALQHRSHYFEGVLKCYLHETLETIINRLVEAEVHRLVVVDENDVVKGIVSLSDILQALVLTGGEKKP
T1 sequence (P54646 whole entry): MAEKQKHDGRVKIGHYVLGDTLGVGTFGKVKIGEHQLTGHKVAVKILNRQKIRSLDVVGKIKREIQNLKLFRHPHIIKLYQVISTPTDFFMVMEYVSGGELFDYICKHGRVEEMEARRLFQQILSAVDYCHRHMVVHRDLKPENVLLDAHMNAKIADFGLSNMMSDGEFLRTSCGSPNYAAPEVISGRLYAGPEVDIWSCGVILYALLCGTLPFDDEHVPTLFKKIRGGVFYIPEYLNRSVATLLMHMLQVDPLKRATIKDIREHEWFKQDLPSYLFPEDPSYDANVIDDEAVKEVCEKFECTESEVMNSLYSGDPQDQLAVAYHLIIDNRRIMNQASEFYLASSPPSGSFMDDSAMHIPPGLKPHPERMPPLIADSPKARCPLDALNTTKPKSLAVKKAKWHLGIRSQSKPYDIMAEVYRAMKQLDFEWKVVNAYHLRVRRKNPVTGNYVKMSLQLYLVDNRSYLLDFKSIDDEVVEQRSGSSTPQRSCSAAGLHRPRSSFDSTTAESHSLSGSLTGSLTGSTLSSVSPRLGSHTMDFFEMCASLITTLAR
T1 sequence (O43741 whole entry partner): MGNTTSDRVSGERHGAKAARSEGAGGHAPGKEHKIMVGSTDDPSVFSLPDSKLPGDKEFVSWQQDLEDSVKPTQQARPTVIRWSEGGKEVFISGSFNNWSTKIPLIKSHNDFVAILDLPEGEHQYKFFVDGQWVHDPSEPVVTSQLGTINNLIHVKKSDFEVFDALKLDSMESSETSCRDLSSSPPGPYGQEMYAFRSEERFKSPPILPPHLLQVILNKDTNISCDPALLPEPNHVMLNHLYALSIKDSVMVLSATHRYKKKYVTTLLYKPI
Protocol: The relative roles of the three CBS sites in the other two mechanisms of activation of AMPK by AMP or ADP, i.e. promotion of Thr172 phosphorylation by LKB1, and protection against Thr172 dephosphorylation by protein phosphatases, have not been examined previously. As expected, incubation of the α2β2γ1 AMPK complex with a fixed, limiting amount of purified LKB1:STRADα:MO25α complex in the presence of 200 µM Mg.ATP^2− caused a large degree of activation (Figure 5A) and phosphorylation (Figure 5B) of AMPK (unphosphorylated α2β2γ1 complex), which were stimulated more than 2-fold by 300 µM AMP and 1.6-fold by 300 µM ADP.
Figure 5. Effects of AMP or ADP on AMPK activation and Thr172 phosphorylation by the LKB1:STRADα:MO25α complex. Unphosphorylated human α2β2γ1 complexes (WT, or with L129D/V130D, V276G/L277G or I312G mutations affecting CBS1, CBS3 or CBS4 respectively) were incubated with ATP and a fixed concentration of the LKB1:STRADα:MO25α complex in the presence or absence of AMP or ADP (both 300 µM), as described in the Materials and methods section. After the incubation aliquots were withdrawn for (A) AMPK assay or (B) Western blots. […] For (B), due to a limit on the number of lanes that could be run on one gel, single replicates from the triplicate assays were analysed. […]

[3] = biological target: T2, GST-tagged human α2 kinase domain (Homo sapiens, UniProt P54646); assay: Inhibition of GST:α2-kinase domain fusion by AMP or ADP; type: biochemical; details: for Activation / IC50: α2 kinase domain
T2 construct: Human GST-tagged α2 kinase domain (1–310); made in house
T2 sequence (P54646 1-310): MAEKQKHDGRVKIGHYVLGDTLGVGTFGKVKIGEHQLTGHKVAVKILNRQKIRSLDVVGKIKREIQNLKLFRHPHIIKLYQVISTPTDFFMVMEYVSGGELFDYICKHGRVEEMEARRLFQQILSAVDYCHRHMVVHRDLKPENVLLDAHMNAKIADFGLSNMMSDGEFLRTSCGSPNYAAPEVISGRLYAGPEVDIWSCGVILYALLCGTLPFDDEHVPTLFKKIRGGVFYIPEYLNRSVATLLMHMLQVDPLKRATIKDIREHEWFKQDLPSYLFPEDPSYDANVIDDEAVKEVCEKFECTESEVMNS
Text: To confirm that the inhibition of kinase activity by ADP at high concentrations was due to competition with ATP at the catalytic site on the α subunit, we repeated the assays using a glutathione-S-transferase- (GST-) tagged human α2 kinase domain that had been phosphorylated by LKB1. […] These IC50 values were similar to those obtained with the intact heterotrimers from rat liver (Supplementary Table S1).
Figure 3. Inhibition of GST:α2-kinase domain fusion by AMP or ADP. The kinase domain (phosphorylated on Thr172 by the LKB1:STRADα:MO25α complex) was incubated with various concentrations of AMP or ADP as in Figure 1 using [ATP] at 0.2 (A), 1.0 (B) or 5.0 mM (C) and keeping [Mg^2+] in a constant excess of 4.8 mM above [ATP] [19]. Results (mean ± SD, n = 2) were fitted to the equation: Y = Basal-(Basal × X)/(IC50 + X) where Y is the kinase activity, X is the concentration of AMP or ADP, and IC50 is the concentration of AMP or ADP causing half-maximal inhibition. Dashed vertical lines show the estimates of IC50 values, and best-fit values of all parameters used to generate the curves are listed in Supplementary Table S1.
Sources of antibodies were as described: pThr172 (AMPK-α: Cell Signaling Technologies, Danvers, MA, U.S.A., Cat# 2535), AMPK-α2 [22]. Rat liver AMPK was purified as described previously. Plasmid encoding human (His)6-tagged AMPK (α2β2γ1, bacterially expressed) generated as in [23], was a gift from AstraZeneca, Cambridge, U.K. The L129D/V130D (CBS1), V276G/L277G (CBS3) and I312G (CBS4) mutations in the α2β2γ1 complex were generated using the Quikchange II site-directed mutagenesis kit (Agilent Technologies) and confirmed by DNA sequencing. Human GST-tagged α2 kinase domain (1–310), LKB1:STRAD-α:MO25-α complexes, GST-tagged CaMKK2 [26], and PPM1A (PP2Cα) were produced as described. Bacterially expressed heterotrimers were activated by phosphorylation of Thr172 by GST-tagged CaMKK2 in the presence of ATP, and CaMKK2 was subsequently removed by passage through glutathione-Sepharose. Human GST-tagged α2 kinase domain was activated in a similar manner except that human (His)6-tagged LKB1:STRAD-α:MO25-α complex was used and removed after activation via passage through a His-Trap column. Recombinant human 5′-nucleotidase, CD73, Cat # 5795-EN-01, was from R&D systems (Minneapolis, MN, U.S.A.).
AMPK assays measured the transfer of radioactivity from [γ-^33P]ATP to a peptide substrate, which was separated from unreacted ATP by binding to P81 paper. This assay was described previously except that we used [γ-^33P] rather than [γ-^32P]ATP. In some assays (specified in Figure legends) the concentration of ATP was increased from 0.2 to 1 or 5 mM ATP, with MgCl2 concentrations maintained at a constant 4.8 mM excess above the concentration of ATP [19]. Where allosteric activation by AMP or ADP was being studied, we used the SAMS peptide as substrate. For all other assays the AMARA peptide was used.

## Nc1ncnc2c1ncn2[C@@H]1O[C@H](COP(=O)(O)OP(=O)(O)O)[C@@H](O)[C@H]1O [ADP]
[1]
  stimulation of activation by LKB1: < 2 fold
[2]
  effect of nucleotide on activation/phosphorylation by LKB1 in the mutant: unaffected
[3]; 0.2 mM ATP
  Activation: none
  IC50: 0.67 mM
[3]; 1.0 mM ATP
  Activation: none
  IC50: 1.6 mM
[3]; 5.0 mM ATP
  Activation: none
  IC50: 3.5 mM

## Nc1ncnc2c1ncn2[C@@H]1O[C@H](COP(=O)(O)O)[C@@H](O)[C@H]1O [AMP]
[2]
  effect of nucleotide on activation/phosphorylation by LKB1 in the mutant: unaffected
[3]; GST-α2 kinase domain, 0.2 to 5 mM ATP
  IC50 of AMP relative to IC50 of ADP: ~3 fold
[3]; 0.2 mM ATP
  Activation: none
  IC50: 2.2 mM
[3]; 1.0 mM ATP
  Activation: none
  IC50: 5.4 mM
[3]; 5.0 mM ATP
  Activation: none
  IC50: 13 mM and 13.4 mM
